Source: ChEMBL document CHEMBL3351570, “Design and synthesis of 2-phenylnaphthalenoids as inhibitors of DNA topoisomeraseIIα and antitumor agents” (Eur J Med Chem, 2014)
The source made the active and inactive calls. The calls are words filed in the database; no cut-off is given here.

Columns and labels:
MDA-MB-231 = experiment: Cytotoxicity against human MDA-MB-231 cells after 72 hrs by sulforhodamine B assay; assay type: functional, cell-based; conditions: MDA-MB-231, 72 h
A549 = experiment: Cytotoxicity against human A549 cells after 72 hrs by sulforhodamine B assay; assay type: functional, cell-based; conditions: A549, 72 h
HeLa = experiment: Cytotoxicity against human HeLa cells after 72 hrs by sulforhodamine B assay; assay type: functional, cell-based
[1] = target: DNA topoisomerase 2-alpha (Homo sapiens) (UniProt P11388); experiment: Inhibition of human recombinant topoisomerase 2alpha assessed as reduction in kDNA decatenation at 100 uM incubated for 30 mins by DNA gel electrophoresis
[2] = target: DNA topoisomerase 2-alpha (Homo sapiens) (UniProt P11388); experiment: Inhibition of human recombinant topoisomerase 2alpha assessed as reduction in pBR322 DNA relaxation at 100 uM incubated for 30 mins by DNA gel electrophoresis
[3] = target: T1, DNA topoisomerase (Bos taurus) (UniProt A0JN73); experiment: Inhibition of calf thymus DNA topoisomerase 1 assessed as reduction in pBR322 DNA relaxation at 100 uM incubated for 30 mins by DNA gel electrophoresis
T1 sequence (whole entry): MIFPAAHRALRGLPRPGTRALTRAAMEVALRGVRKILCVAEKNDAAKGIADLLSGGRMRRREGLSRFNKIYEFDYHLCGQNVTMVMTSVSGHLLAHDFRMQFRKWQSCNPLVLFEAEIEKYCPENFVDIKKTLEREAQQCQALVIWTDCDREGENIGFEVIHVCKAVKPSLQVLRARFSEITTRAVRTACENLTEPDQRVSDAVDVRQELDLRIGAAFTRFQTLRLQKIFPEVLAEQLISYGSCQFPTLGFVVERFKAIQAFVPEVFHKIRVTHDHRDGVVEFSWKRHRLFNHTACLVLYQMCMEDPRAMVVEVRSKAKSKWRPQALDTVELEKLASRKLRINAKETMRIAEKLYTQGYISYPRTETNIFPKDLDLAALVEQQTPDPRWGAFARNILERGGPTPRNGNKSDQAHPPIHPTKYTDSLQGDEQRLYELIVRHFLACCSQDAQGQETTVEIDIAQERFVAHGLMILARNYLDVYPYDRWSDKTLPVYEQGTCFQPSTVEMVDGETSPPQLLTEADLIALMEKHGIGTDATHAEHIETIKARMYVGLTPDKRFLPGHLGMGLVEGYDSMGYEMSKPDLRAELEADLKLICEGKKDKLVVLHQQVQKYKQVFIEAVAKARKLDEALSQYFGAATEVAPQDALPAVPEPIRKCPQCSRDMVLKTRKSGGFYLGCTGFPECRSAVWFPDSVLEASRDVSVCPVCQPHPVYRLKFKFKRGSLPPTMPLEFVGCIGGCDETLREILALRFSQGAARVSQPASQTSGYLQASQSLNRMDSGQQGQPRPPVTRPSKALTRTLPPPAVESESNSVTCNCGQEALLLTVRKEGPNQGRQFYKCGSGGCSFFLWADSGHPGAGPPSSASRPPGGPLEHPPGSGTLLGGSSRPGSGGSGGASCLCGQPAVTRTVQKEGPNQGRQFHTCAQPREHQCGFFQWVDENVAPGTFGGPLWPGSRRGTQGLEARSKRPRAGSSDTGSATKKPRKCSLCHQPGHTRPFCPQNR

Chain of DNA topoisomerase 2-alpha (Homo sapiens) (P11388 whole entry): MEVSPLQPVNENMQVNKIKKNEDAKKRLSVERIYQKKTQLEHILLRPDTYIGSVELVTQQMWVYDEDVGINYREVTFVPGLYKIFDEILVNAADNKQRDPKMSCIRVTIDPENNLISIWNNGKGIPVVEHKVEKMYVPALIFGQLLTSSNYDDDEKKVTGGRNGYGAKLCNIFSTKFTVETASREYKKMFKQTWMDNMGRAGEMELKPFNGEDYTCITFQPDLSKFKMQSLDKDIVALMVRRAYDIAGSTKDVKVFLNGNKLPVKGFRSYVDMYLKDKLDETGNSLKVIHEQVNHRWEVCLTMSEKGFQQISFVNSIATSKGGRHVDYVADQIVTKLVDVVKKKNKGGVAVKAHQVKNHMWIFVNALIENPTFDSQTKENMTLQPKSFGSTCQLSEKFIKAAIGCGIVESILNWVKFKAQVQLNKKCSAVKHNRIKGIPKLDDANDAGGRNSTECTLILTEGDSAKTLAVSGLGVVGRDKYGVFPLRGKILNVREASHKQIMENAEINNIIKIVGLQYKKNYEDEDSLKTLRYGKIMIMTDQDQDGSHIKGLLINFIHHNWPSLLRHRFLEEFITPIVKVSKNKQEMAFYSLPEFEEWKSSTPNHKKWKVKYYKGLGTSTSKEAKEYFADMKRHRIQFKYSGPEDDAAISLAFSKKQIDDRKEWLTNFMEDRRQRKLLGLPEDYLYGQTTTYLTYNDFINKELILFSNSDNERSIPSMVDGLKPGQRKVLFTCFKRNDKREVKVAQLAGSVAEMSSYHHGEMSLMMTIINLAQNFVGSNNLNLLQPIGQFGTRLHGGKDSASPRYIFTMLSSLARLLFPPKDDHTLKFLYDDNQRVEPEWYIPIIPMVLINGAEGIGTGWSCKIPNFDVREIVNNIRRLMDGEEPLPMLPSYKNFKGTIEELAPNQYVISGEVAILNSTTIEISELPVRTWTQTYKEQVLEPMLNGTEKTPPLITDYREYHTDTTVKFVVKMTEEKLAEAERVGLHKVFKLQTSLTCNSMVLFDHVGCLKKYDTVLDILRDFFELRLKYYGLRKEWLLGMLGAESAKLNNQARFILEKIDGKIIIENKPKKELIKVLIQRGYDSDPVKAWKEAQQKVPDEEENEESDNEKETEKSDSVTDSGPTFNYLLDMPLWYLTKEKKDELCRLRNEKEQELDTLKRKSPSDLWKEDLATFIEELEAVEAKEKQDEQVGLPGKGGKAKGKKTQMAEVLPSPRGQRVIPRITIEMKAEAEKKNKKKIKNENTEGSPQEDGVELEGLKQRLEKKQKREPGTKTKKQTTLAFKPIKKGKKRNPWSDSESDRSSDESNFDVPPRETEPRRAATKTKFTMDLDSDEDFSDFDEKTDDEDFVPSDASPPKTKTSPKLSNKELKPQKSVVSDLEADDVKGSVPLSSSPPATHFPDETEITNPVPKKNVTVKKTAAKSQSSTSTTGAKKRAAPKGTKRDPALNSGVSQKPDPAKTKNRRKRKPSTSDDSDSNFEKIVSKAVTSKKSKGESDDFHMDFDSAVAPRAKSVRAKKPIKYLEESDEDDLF

Compound	IC50 (MDA-MB-231) [µM]	IC50 (A549) [µM]	IC50 (HeLa) [µM]	inhibition [1]	inhibition [2]	inhibition [3]
COc1ccc2cc(-c3ccc(O)c(C(=O)O)c3)ccc2c1	93.3	> 20	> 20	–	–	–
COc1ccc2cc(-c3ccc(N)cc3)ccc2c1	168	> 20	> 20	–	–	–
COc1ccc2cc(-c3cccc(C(F)(F)F)c3)ccc2c1	455	> 20	> 20	–	–	–
COc1ccc2cc(-c3ccc(OC(C)=O)c(COC(C)=O)c3)ccc2c1	81.8	> 20	> 20	–	–	–
O=Cc1ccc(O)c(-c2ccc3cc(O)ccc3c2)c1	3.2	10.5	5	Active	Active	–
COC(=O)c1ccc(C)c(-c2ccc3cc(O)ccc3c2)c1	0.5	5	1.2	Active	Active	–
COC(=O)c1ccc(O)c(-c2ccc3cc(OC)ccc3c2)c1	36.5	> 20	> 20	–	–	–
COc1ccc2cc(-c3ccc(C(C)O)cc3)ccc2c1 (stereo not drawn)	69.8	> 20	> 20	–	–	–
COC(=O)c1ccc(-c2ccc3cc(OC)ccc3c2)cc1O	77.3	> 20	> 20	–	–	–
Oc1ccc2cc(-c3ccc(O)c(O)c3)ccc2c1	4.3	11.5	4.6	Active	Active	–
Oc1ccc(-c2ccc3cc(O)ccc3c2)cc1	10.5	11.4	3.1	–	–	–
OCCc1cc(-c2ccc3cc(O)ccc3c2)ccc1O	0.4	0.6	0.6	Active	inactive	inactive
COc1ccc2cc(-c3ccc(CO)cc3)ccc2c1	152	7.9	9.1	–	–	–
COC(=O)Cc1cc(-c2ccc3cc(O)ccc3c2)ccc1O	98	–	–	–	–	–
O=C(O)Cc1cc(-c2ccc3cc(O)ccc3c2)ccc1O	> 800	> 20	> 20	–	–	–
O=[N+]([O-])c1ccc(-c2ccc3cc(O)ccc3c2)cc1C(F)(F)F	4.5	3.5	1.9	Active	Active	–
Cc1ccc(C(=O)O)c(-c2ccc3cc(O)ccc3c2)c1	94.3	> 20	> 20	Active	–	–
OCc1ccc(-c2ccc3cc(O)ccc3c2)cc1	29.5	> 20	2.2	–	–	–
COc1ccc2cc(-c3ccc(CC(=O)O)cc3)ccc2c1	272	> 20	> 20	–	–	–
COC(=O)Cc1ccc(-c2ccc3cc(OC)ccc3c2)cc1	695	> 20	> 20	–	–	–
COc1ccc2cc(-c3ccc(O)cc3)ccc2c1	> 800	> 20	> 20	–	–	–
CC[C@@]1(O)C(=O)OCc2c1cc1n(c2=O)Cc2cc3ccccc3nc2-1	–	–	–	–	–	Active
COC(=O)c1ccc(O)c(-c2ccc3cc(O)ccc3c2)c1	7.6	11.6	2.2	–	Active	–

Compound	IC50 (MDA-MB-231) [µM]	IC50 (A549) [µM]	IC50 (HeLa) [µM]	inhibition [1]	inhibition [2]	inhibition [3]
COc1ccc2cc(-c3ccc(OC)c(OC)c3)ccc2c1	112	> 20	> 20	–	–	–
COc1ccc2cc(-c3ccc(CCO)c(O)c3)ccc2c1	92	> 20	> 20	–	–	–
COC(=O)c1cc(-c2ccc3cc(OC)ccc3c2)ccc1O	82.2	> 20	> 20	–	–	–
COc1ccc2cc(-c3cc(C=O)c(O)c(OC)c3)ccc2c1	61.8	> 20	> 20	–	–	–
COc1ccc(-c2ccc3cc(O)ccc3c2)cc1OC	16.8	20	4.8	–	–	–
COc1ccc2cc(-c3cc(C(C)=O)c(O)c([N+](=O)[O-])c3)ccc2c1	19.8	> 20	> 20	Active	–	–
COc1ccc2cc(-c3ccc([N+](=O)[O-])c(C(F)(F)F)c3)ccc2c1	165	> 20	> 20	–	–	–
COC(=O)Cc1cc(-c2ccc3cc(OC)ccc3c2)ccc1O	> 800	> 20	> 20	–	–	–
O=C(O)c1cc(-c2ccc3cc(O)ccc3c2)ccc1O	31.5	> 20	> 20	–	–	–
COc1ccc2cc(-c3cc(C=O)ccc3O)ccc2c1	25.3	14.1	> 20	–	–	–
COC(=O)C(O)c1ccc(-c2ccc3cc(OC)ccc3c2)cc1 (stereo not drawn)	24.2	> 20	> 20	–	–	–
COc1ccc2cc(-c3ccc(OC)c(C=O)c3)ccc2c1	> 800	> 20	> 20	–	–	–
COC(=O)c1ccc(-c2ccc3cc(OC)ccc3c2)cc1	> 800	> 20	> 20	–	–	–
COc1ccc2cc(-c3ccc(N)c(C)c3)ccc2c1	> 800	> 20	> 20	–	–	–
CC(O)c1ccc(-c2ccc3cc(O)ccc3c2)cc1 (stereo not drawn)	7.6	19.9	3.4	–	–	–
Cc1cc(-c2ccc3cc(O)ccc3c2)ccc1N	2.1	3.5	2.9	Active	Active	–
COc1ccc2cc(-c3ccc(C(F)(F)F)cc3)ccc2c1	54.9	> 20	> 20	–	–	–
COC(=O)c1ccc(C)c(-c2ccc3cc(OC)ccc3c2)c1	> 800	> 20	20	Active	–	–
Nc1ccc(-c2ccc3cc(O)ccc3c2)cc1	18.2	19.8	3.1	–	–	–
OCc1cccc(-c2ccc3cc(O)ccc3c2)c1	5	9.1	3.2	–	–	–
COc1ccc2cc(-c3cccc(CO)c3)ccc2c1	19.9	> 20	20	–	–	–
O=C(O)c1ccc(-c2ccc3cc(O)ccc3c2)cc1O	8.1	15.3	5.5	–	–	–
